Where “and” joins values, the source holds several entries; their conditions need not be identical. Equal values may be shown once. Inconclusive results and toxic doses are left out.
Test system: L1210 leukemia ip in BDF1 mice, survival T/C
Test: NCI In Vivo Anticancer Drug Screen. Data for tumor model L1210 Leukemia (intraperitoneal) in B6D2F1 (BDF1) mice
Conditions: endpoint: mean survival time, higher = longer survival
Outline: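 Read-out is survival time, reported as the treated-group measurement over the vehicle-control measurement.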

SMILES: Nc1nc(=S)c2[nH]cnc2[nH]1
- T/C (dose: 0.04 mg/kg/injection, schedule: Q01DX Z (ip), vehicle: carboxymethylcellulose (CMC)): 113 % of control
- T/C (dose: 0.06 mg/kg/injection, schedule: Q01DX009 (ip), vehicle: alkali diluted with saline): 106 % of control and 108 % of control
- T/C (dose: 0.06 mg/kg/injection, schedule: Q01DX Z (ip), vehicle: carboxymethylcellulose (CMC)): 105 % of control
- T/C (dose: 0.06 mg/kg/injection, schedule: Q#A X Z (ip), vehicle: saline): 121 % of control
- T/C (dose: 0.09 mg/kg/injection, schedule: Q01DX Z (ip), vehicle: carboxymethylcellulose (CMC)): 109 % of control
- T/C (dose: 0.12 mg/kg/injection, schedule: Q01DX009 (ip), vehicle: alkali diluted with saline): 111 % of control
- T/C (dose: 0.13 mg/kg/injection, schedule: Q01DX Z (ip), vehicle: saline): 111 % of control
- T/C (dose: 0.13 mg/kg/injection, schedule: Q01DX Z (sc), vehicle: saline): 107 % of control
- T/C (dose: 0.14 mg/kg/injection, schedule: Q01DX Z (ip), vehicle: carboxymethylcellulose (CMC)): 110 % of control
- T/C (dose: 0.22 mg/kg/injection, schedule: Q01DX Z (ip), vehicle: carboxymethylcellulose (CMC)): 115 % of control
- T/C (dose: 0.22 mg/kg/injection, schedule: Q07DX003 (ip), vehicle: saline): 113 % of control
- T/C (dose: 0.25 mg/kg/injection, schedule: Q01DX Z (sc), vehicle: saline): 116 % of control
- T/C (dose: 0.33 mg/kg/injection, schedule: Q01DX015 (ip), vehicle: alkali diluted with saline): 102 % of control
- T/C (dose: 0.33 mg/kg/injection, schedule: Q01DX Z (ip), vehicle: carboxymethylcellulose (CMC)): 119 % of control
- T/C (dose: 0.37 mg/kg/injection, schedule: Q03DX006 (ip), vehicle: saline): 114 % of control
- T/C (dose: 0.43 mg/kg/injection, schedule: Q01DX009 (ip), vehicle: alkali diluted with saline): 152 % of control
- T/C (dose: 0.44 mg/kg/injection, schedule: Q07DX003 (ip), vehicle: saline): 122 % of control
- T/C (dose: 0.5 mg/kg/injection, schedule: Q01DX006 (iv), vehicle: saline): 106 % of control
- T/C (dose: 0.5 mg/kg/injection, schedule: Q01DX Z (im), vehicle: saline): 109 % of control
- T/C (dose: 0.5 mg/kg/injection, schedule: Q01DX Z (ip), vehicle: carboxymethylcellulose (CMC)): 111 % of control
- T/C (dose: 0.5 mg/kg/injection, schedule: Q01DX Z (oral), vehicle: saline): 113 % of control
- T/C (dose: 0.55 mg/kg/injection, schedule: Q01DX015 (ip), vehicle: alkali diluted with saline): 151 % of control
- T/C (dose: 0.55 mg/kg/injection, schedule: Q## X015 (ip), vehicle: alkali diluted with saline): 151 % of control
- T/C (dose: 0.75 mg/kg/injection, schedule: Q03DX006 (ip), vehicle: saline): 118 % of control
- T/C (dose: 0.88 mg/kg/injection, schedule: Q01DX001 (ip), vehicle: saline): 115 % of control
- T/C (dose: 0.88 mg/kg/injection, schedule: Q03HX016 (ip), vehicle: alkali diluted with saline): 150 % of control
- T/C (dose: 0.88 mg/kg/injection, schedule: Q03HX024 (ip), vehicle: alkali diluted with saline): 152 % of control
- T/C (dose: 0.9 mg/kg/injection, schedule: Q01DX015 (ip), vehicle: alkali diluted with saline): 152 % of control
- T/C (dose: 1.0 mg/kg/injection, schedule: Q01DX006 (iv), vehicle: saline): 112 % of control
- T/C (dose: 1.0 mg/kg/injection, schedule: Q01DX Z (ip), vehicle: carboxymethylcellulose (CMC)): 152 % of control
- T/C (dose: 1.0 mg/kg/injection, schedule: Q01DX Z (oral), vehicle: saline): 116 % of control
- T/C (dose: 1.2 mg/kg/injection, schedule: Q03HX032 (ip), vehicle: alkali diluted with saline): 151 % of control and 152 % of control
- T/C (dose: 1.5 mg/kg/injection, schedule: Q03DX006 (ip), vehicle: saline): 154 % of control
- T/C (dose: 1.75 mg/kg/injection, schedule: Q01DX001 (ip), vehicle: saline): 109 % of control
- T/C (dose: 1.8 mg/kg/injection, schedule: Q04DX002 (ip), vehicle: alkali diluted with saline): 110 % of control
- T/C (dose: 2.0 mg/kg/injection, schedule: Q01DX Z (sc), vehicle: saline): 153 % of control
- T/C (dose: 2.5 mg/kg/injection, schedule: Q01DX010 (ip), vehicle: other): 123 % of control
- T/C (dose: 3.5 mg/kg/injection, schedule: Q01DX001 (ip), vehicle: saline): 109 % of control and 120 % of control
- T/C (dose: 3.5 mg/kg/injection, schedule: Q04DX008 (ip), vehicle: alkali diluted with saline): 154 % of control
- T/C (dose: 3.7 mg/kg/injection, schedule: Q01DX Z (ip), vehicle: carboxymethylcellulose (CMC)): 110 % of control
- T/C (dose: 4.0 mg/kg/injection, schedule: Q01DX Z (im), vehicle: saline): 119 % of control
- T/C (dose: 4.0 mg/kg/injection, schedule: Q01DX Z (ip), vehicle: carboxymethylcellulose (CMC)): 93 % of control
- T/C (dose: 4.0 mg/kg/injection, schedule: Q01DX Z (sc), vehicle: saline): 106 % of control
- T/C (dose: 5.0 mg/kg/injection, schedule: Q01DX010 (ip), vehicle: other): 98 % of control and 104 % of control
- T/C (dose: 5.3 mg/kg/injection, schedule: Q04DX012 (ip), vehicle: alkali diluted with saline): 153 % of control

Reference: PubChem BioAssay AID248 (DTP/NCI, 2004)
